Peptide text beside a SMILES is read from it.
Target: T1, recombinant AtCathB3 (Arabidopsis cathepsin B3) (Arabidopsis thaliana, UniProt Q94K85)
T1 construct: gene CATHB3; 25-residue signal peptide removed; N-terminal cherrytag (11 kDa), C-terminal 6xHis; secreted from baculovirus-infected insect cells (Sf9/Hi-5); N-glycosylated
T1 sequence (Q94K85 26-359): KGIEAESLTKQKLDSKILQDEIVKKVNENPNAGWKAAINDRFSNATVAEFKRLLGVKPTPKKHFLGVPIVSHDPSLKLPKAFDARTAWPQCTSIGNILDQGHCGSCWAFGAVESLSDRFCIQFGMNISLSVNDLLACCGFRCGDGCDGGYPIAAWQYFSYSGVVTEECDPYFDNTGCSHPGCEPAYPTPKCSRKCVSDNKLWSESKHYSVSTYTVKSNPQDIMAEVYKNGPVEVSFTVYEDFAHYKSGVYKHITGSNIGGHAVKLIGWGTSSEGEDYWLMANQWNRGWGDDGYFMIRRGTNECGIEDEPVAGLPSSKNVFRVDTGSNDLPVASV
Test: fluorogenic DEVDase assay, inhibitor pre-incubated […] min
Format: biochemical

SMILES | remaining activity at 1000 µM [%] | remaining activity at 100 µM [%]
CCCNC(=O)[C@H]1O[C@@H]1C(=O)N[C@H](C(=O)N1CCC[C@H]1C(=O)O)[C@@H](C)CC [CA-074] | 0 | 
CC(C)[C@H](NC(=O)[C@H](CCC(=O)O)NC(=O)[C@H](CC(=O)O)NC(=O)OCc1ccccc1)C(=O)N[C@H](C=O)CC(=O)O [DEVD-CHO, Z-DEVD-CHO] |  | 0.3
CC(=O)N[C@@H](CC(C)C)C(=O)N[C@H](C(=O)N[C@H](C=O)CCCCN)C(C)C [LVK-CHO, Ac-LVK-CHO] (Ac-Leu-Val-Lys-aldehyde) |  | 0
CC(=O)N[C@@H](Cc1ccc(O)cc1)C(=O)N[C@H](C(=O)N[C@@H](C)C(=O)N[C@H](C=O)CC(=O)O)C(C)C [YVAD-CHO, Ac-YVAD-CHO] |  | 43.3 ± 0.6

Reference: paper PMC5072426, “Inhibition of cathepsin B by caspase-3 inhibitors blocks programmed cell death in Arabidopsis” (Cell Death and Differentiation, 2016)
